Results taken from ChEMBL document CHEMBL1124789, “Angiotensin-converting enzyme inhibitors. 9. Novel [[N-(1-carboxy-3-phenylpropyl)amino]acyl]glycine derivatives with diuretic activity” (J Med Chem, 1990).
The source made the active and inactive calls. The calls are words filed in the database; no cut-off is given here.

Legend:
[1] = biological target: T1, Angiotensin-converting enzyme (Rattus norvegicus) (UniProt P47820); assay: Inhibition of Angiotensin I converting enzyme(ACE) at the dose of 100 mg/kg (ip) in rat; format: organism-based; set-up: dose 100 mg/kg
T1 sequence (whole entry): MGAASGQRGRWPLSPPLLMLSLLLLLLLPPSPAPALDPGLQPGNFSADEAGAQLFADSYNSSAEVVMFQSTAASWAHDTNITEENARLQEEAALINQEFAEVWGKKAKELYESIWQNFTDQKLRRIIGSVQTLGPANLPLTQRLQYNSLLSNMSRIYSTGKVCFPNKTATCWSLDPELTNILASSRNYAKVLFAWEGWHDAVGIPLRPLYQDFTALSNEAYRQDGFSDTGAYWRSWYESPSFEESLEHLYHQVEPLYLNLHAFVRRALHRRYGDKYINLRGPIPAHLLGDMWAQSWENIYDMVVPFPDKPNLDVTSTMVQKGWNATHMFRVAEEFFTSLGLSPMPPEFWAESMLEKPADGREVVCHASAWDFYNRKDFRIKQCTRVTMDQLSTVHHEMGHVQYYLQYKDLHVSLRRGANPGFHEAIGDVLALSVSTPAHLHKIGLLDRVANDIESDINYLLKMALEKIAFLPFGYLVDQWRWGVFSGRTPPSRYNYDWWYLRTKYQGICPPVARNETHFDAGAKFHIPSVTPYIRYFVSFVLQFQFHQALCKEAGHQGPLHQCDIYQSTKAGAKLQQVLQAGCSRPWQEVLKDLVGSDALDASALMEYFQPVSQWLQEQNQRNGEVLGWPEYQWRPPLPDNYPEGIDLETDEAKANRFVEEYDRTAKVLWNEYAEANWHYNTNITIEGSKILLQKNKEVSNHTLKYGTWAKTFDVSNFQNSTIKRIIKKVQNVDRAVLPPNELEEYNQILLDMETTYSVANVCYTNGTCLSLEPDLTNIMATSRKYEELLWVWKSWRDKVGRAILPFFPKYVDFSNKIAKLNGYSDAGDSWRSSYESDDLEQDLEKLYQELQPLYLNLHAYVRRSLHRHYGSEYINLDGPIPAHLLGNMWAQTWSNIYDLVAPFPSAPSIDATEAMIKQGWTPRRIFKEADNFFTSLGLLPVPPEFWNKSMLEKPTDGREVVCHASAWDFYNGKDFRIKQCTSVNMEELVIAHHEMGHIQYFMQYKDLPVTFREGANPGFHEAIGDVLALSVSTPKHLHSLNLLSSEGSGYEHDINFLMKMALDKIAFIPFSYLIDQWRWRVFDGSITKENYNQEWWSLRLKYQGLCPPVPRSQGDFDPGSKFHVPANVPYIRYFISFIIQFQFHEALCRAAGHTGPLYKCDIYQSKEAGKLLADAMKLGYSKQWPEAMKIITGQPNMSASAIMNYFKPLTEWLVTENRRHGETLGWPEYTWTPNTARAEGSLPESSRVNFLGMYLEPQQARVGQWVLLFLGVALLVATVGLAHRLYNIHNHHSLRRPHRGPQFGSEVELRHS

[2] = biological target: T1, Angiotensin-converting enzyme (Rattus norvegicus); assay: Inhibition of Angiotensin I converting enzyme(ACE) at the dose of 100 mg/kg (po) in rat; format: organism-based; set-up: dose 100 mg/kg
[3] = biological target: T1, Angiotensin-converting enzyme (Rattus norvegicus); assay: Inhibition of Angiotensin I converting enzyme(ACE) at the dose of 10 mg/kg (po) in rat; format: organism-based; set-up: dose 10 mg/kg
[4] = biological target: T1, Angiotensin-converting enzyme (Rattus norvegicus); assay: Inhibition of Angiotensin I converting enzyme(ACE) at the dose of 30 mg/kg (po) in rat; format: organism-based; set-up: dose 30 mg/kg
[5] = biological target: T2, Angiotensin-converting enzyme (Rattus norvegicus, UniProt P47820); assay: In vitro inhibitory activity against Angiotensin I converting enzyme(ACE)
T2 sequence (P47820 whole entry): T1 sequence (whole entry)

[6] = biological target: Angiotensin-converting enzyme (Homo sapiens) (UniProt P12821); assay: In vitro inhibitory activity against Angiotensin I converting enzyme(ACE) in dog; conditions: Canis lupus familiaris; target entry is the homologue from another species; concentration not given here
Canis familiaris [7] = assay: Diuretic activity (po) in dog; ND- Natriuresis and diuresis; format: functional, organism-based; conditions: Canis lupus familiaris; Urine
Canis familiaris [8] = assay: Maximum percent decrease in blood pressure at the dose of 100 mg/kg ip; format: functional, Canis lupus familiaris; conditions: route intraperitoneal
Rattus norvegicus [9] = assay: Diuretic activity (po); ND-Natriuresis&diuresis; format: functional, organism-based; conditions: Urine
Rattus norvegicus [10] = species on record: Rattus norvegicus; assay: Duration of action on ACE in rat; format: functional
[11] = biological target: T2, Angiotensin-converting enzyme; assay: (§1) In vitro inhibitory activity against Angiotensin I converting enzyme (ACE)
Rattus norvegicus [12] = assay: Diuretic activity (po);NI- No increase; format: functional, organism-based; conditions: Urine
[13] = biological target: Angiotensin-converting enzyme (Homo sapiens) (UniProt P12821); assay: Inhibition of Angiotensin I converting enzyme(ACE) at the dose of 100 mg/kg (ip) in dog; format: organism-based; set-up: dose 100 mg/kg; conditions: Canis lupus familiaris; target entry is the homologue from another species
Canis familiaris [14] = assay: Diuretic activity (po) in dog; ND-Natriuresis&diuresis; format: functional, organism-based; conditions: Canis lupus familiaris; Urine
Rattus norvegicus [15] = assay: Diuretic activity (po);ND- Natriuresis and diuresis; format: functional, organism-based; conditions: Urine
Rattus norvegicus [16] = assay: Diuretic activity (ip);NI-No increase; format: functional, organism-based; conditions: Urine
[17] = biological target: T1, Angiotensin-converting enzyme (Rattus norvegicus); assay: as §1; conditions: concentration not given here
[18] = biological target: T1, Angiotensin-converting enzyme (Rattus norvegicus); assay: Inhibition of Angiotensin I converting enzyme(ACE) at the dose of 10 mg/kg (ip) in rat; format: organism-based; set-up: dose 10 mg/kg; scale not given: the % may be the effect or the level left
Rattus norvegicus [19] = assay: Diuretic activity (ip);NI- No increase; format: functional, organism-based; conditions: Urine
Rattus norvegicus [20] = assay: Diuretic activity (ip);ND- Natriuresis and diuresis; format: functional, organism-based; conditions: Urine
Rattus norvegicus [21] = assay: Diuretic activity (ip);NI- No Increase; format: functional, organism-based; conditions: Urine
Rattus norvegicus [22] = assay: Diuretic activity (po); NI-No Increase; format: functional, organism-based; conditions: Urine
Rattus norvegicus [23] = assay: Diuretic activity (ip); NI-No Increase; format: functional, organism-based; conditions: Urine
Rattus norvegicus [24] = assay: Diuretic activity (po);NI-No increase; format: functional, organism-based; conditions: Urine
[25] = biological target: T1, Angiotensin-converting enzyme (Rattus norvegicus); assay: Inhibition of Angiotensin I converting enzyme(ACE) at the dose of 30 mg/kg (ip) in rat; format: organism-based; set-up: dose 30 mg/kg; scale not given: the % may be the effect or the level left
Canis familiaris [26] = assay: Diuretic activity (ip) was tested in dogs; format: functional, organism-based; conditions: Canis lupus familiaris; Urine
Rattus norvegicus [27] = assay: Diuretic activity (po); N-Natriuresis; format: functional, organism-based; conditions: Urine
Canis familiaris [28] = assay: Diuretic activity (po) in dog; NI-No Increase; format: functional, organism-based; conditions: Canis lupus familiaris; Urine

Angiotensin-converting enzyme (Homo sapiens), sequence (P12821 whole entry): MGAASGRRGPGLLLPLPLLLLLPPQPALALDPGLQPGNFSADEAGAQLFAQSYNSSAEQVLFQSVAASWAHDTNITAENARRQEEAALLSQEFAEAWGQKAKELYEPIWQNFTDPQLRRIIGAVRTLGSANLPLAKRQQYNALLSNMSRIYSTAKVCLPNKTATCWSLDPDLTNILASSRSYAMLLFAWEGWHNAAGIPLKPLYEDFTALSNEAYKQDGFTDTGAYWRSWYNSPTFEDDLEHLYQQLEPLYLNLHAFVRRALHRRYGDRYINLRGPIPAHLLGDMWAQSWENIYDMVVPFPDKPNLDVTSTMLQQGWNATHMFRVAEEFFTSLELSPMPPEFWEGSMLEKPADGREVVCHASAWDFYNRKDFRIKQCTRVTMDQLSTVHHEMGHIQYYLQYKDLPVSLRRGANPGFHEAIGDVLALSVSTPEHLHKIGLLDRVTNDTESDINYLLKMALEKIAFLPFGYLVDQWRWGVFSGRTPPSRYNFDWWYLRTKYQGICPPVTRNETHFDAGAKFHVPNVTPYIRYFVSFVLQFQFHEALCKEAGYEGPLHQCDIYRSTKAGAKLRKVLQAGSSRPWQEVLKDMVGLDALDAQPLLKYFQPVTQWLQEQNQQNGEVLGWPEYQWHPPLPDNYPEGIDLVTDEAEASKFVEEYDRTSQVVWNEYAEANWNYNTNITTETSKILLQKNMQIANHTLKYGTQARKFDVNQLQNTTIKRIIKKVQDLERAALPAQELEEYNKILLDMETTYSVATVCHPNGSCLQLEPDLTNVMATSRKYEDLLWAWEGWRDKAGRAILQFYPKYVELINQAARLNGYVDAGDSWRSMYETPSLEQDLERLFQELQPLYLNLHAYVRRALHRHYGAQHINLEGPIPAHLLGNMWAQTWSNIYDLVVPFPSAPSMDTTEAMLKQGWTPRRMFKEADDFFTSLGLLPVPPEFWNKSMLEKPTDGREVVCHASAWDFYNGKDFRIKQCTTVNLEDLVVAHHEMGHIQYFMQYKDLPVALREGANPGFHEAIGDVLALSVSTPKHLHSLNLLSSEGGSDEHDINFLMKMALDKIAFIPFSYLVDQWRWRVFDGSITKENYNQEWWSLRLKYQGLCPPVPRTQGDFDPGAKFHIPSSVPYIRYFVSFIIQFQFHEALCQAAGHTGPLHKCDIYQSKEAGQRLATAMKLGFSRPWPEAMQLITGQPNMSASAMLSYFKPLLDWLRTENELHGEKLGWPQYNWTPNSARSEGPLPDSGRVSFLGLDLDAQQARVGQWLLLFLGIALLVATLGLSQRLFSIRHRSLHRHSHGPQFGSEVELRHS

ACE inhibition [1] [%]	ACE inhibition [2] [%]	ACE inhibition [3] [%]	ACE inhibition [4] [%]	IC50 [5] [µM]	Compound	Duration (Rattus norvegicus [10]) [h]	further results
100	100	80	80	0.22	Cl.NCCCC[C@H](N[C@@H](CCc1ccccc1)C(=O)O)C(=O)N(CC(=O)O)CC1Nc2cc(Cl)c(S(N)(=O)=O)cc2S(=O)(=O)N1 (some centres undefined)	3	inhibition [6]: 100%; Activity (Canis familiaris [7]): Natriuresis and diuresis; Decrease (Canis familiaris [8]): 0%; Activity (Rattus norvegicus [9]): Natriuresis and diuresis
–	–	–	–	–	Cl.NS(=O)(=O)c1cc(C(=O)NCCCC[C@H](N[C@@H](CCc2ccccc2)C(=O)O)C(=O)N(CC(=O)O)C2Cc3ccccc3C2)ccc1Cl	3	IC50 [11]: 0.007 µM; Activity (Rattus norvegicus [12]): No increase
100	100	50	50	0.23	C[C@H](N[C@@H](CCc1ccccc1)C(=O)O)C(=O)N(CCCC1Nc2cc(Cl)c(S(N)(=O)=O)cc2S(=O)(=O)N1)CC(=O)O.Cl (some centres undefined)	> 3	inhibition [13]: > 100%; Activity (Canis familiaris [14]): Natriuresis and diuresis; Decrease (Canis familiaris [8]): 14%; Activity (Rattus norvegicus [15]): Natriuresis and diuresis
–	–	–	–	–	C[C@H](N[C@@H](CCc1ccccc1)C(=O)O)C(=O)N(CCCNC(=O)c1ccc(Cl)c(S(N)(=O)=O)c1)CC(=O)O	–	IC50 [11]: 38 µM; Activity (Rattus norvegicus [16]): No increase
–	50	–	–	–	CCOC(=O)[C@H](CCc1ccccc1)N[C@@H](C)C(=O)N(CC(=O)O)N(C)CC1Nc2cc(Cl)c(S(N)(=O)=O)cc2S(=O)(=O)N1.Cl (some centres undefined)	<1	inhibition [17]: 74%; Activity [18]: 80%; Activity (Rattus norvegicus [15]): Natriuresis and diuresis
80	< 30	–	–	22	CCOC(=O)c1cc(S(N)(=O)=O)c(NCCCC[C@H](C(=O)O)N(Cc2ccccc2)C(=O)[C@H](C)N[C@@H](CCc2ccccc2)C(=O)OCC)cc1Cl.Cl	3	Activity (Rattus norvegicus [19]): No increase
50	50	–	–	–	CCOC(=O)C(CCc1ccccc1)N[C@@H](C)C(=O)N(C1Cc2ccccc2C1)[C@H](CCCCNC(=O)c1ccc(Cl)c(S(N)(=O)=O)c1)C(=O)O.Cl (some centres undefined)	3	Activity (Rattus norvegicus [20]): Natriuresis and diuresis
100	100	80	–	–	Cl.NS(=O)(=O)c1cc(C(=O)NCCCC[C@H](N[C@@H](CCc2ccccc2)C(=O)O)C(=O)N2CCC[C@H]2C(=O)O)ccc1Cl	>3	IC50 [11]: 0.0065 µM; Activity (Rattus norvegicus [21]): No increase; Activity (Rattus norvegicus [12]): No increase
100	–	–	–	0.16	C[C@H](N[C@@H](CCc1ccccc1)C(=O)O)C(=O)N(CC(=O)O)Cc1cc(C(C)(C)C)cc(I)c1O.Cl	3	Activity (Rattus norvegicus [19]): No increase
80	< 30	–	< 30	2.2	C[C@H](N[C@@H](CCc1ccccc1)C(=O)O)C(=O)N(CC(=O)O)CC(=O)Nc1cc(C(=O)O)cc(S(N)(=O)=O)c1Cl.Cl	3	Activity (Rattus norvegicus [22]): No increase
80	< 30	–	–	80	CCOC(=O)[C@H](CCc1ccccc1)N[C@@H](C)C(=O)N(CC(=O)O)Cc1cc(C(C)(C)C)cc(I)c1O	–	Activity (Rattus norvegicus [23]): No increase
–	80	–	< 30	2.7	C[C@H](N[C@@H](CCc1ccccc1)C(=O)O)C(=O)N(CC(=O)O)[C@H](C)C1Nc2cc(Cl)c(S(N)(=O)=O)cc2S(=O)(=O)N1 (some centres undefined)	3	–
–	100	50	–	–	CCOC(=O)[C@H](CCc1ccccc1)N[C@@H](CCCCNC(=O)c1ccc(Cl)c(S(N)(=O)=O)c1)C(=O)N(CC(=O)O)C1Cc2ccccc2C1.Cl	>3	Activity [18]: 100%; IC50 [11]: 0.04 µM; Activity (Rattus norvegicus [24]): No increase
–	50	–	–	95	Br.C[C@H](N[C@@H](CCc1ccccc1)C(=O)O)C(=O)N(C1CCC2(CC1)Nc1cc(Cl)c(S(N)(=O)=O)cc1S(=O)(=O)N2)C(CCCCN)C(=O)O (some centres undefined)	<1	Activity (Rattus norvegicus [20]): Natriuresis and diuresis
–	–	–	50	0.68	C[C@H](N[C@@H](CCc1ccccc1)C(=O)O)C(=O)N(Cc1ccccc1)[C@H](CCCCNc1cc(Cl)c(S(N)(=O)=O)cc1C(=O)O)C(=O)O.Cl	<1	Activity [25]: < 30%; Activity (Rattus norvegicus [22]): No increase
–	–	–	–	–	C[C@H](CS)C(=O)N1CCC[C@H]1C(=O)O	–	Activity (Canis familiaris [26]): inactive
–	–	80	–	2.4	C[C@H](N[C@@H](CCc1ccccc1)C(=O)O)C(=O)N(Cc1ccccc1)[C@H](CCCCNc1cc(Cl)c(C(=O)O)cc1S(N)(=O)=O)C(=O)O.Cl	0	Activity (Rattus norvegicus [27]): N
80	80	80	–	–	CCOC(=O)[C@H](CCc1ccccc1)N[C@@H](CCCCNC(=O)c1ccc(Cl)c(S(N)(=O)=O)c1)C(=O)N1CCC[C@H]1C(=O)O.Cl	3	IC50 [11]: 15 µM; Activity (Rattus norvegicus [20]): Natriuresis and diuresis
–	–	< 30	–	–	CCOC(=O)[C@H](CCc1ccccc1)N[C@@H](C)C(=O)N(CC(=O)O)[C@H](CC(C)C)C1Nc2cc(Cl)c(S(N)(=O)=O)cc2S(=O)(=O)N1.Cl (some centres undefined)	<1	inhibition [17]: < 20%; Activity [18]: 50%; Activity (Rattus norvegicus [12]): No increase
100	–	–	–	–	NS(=O)(=O)c1cc2c(cc1Cl)NC(CN(CC(=O)O)C(=O)[C@H](CCCCNC(=O)OCc1ccccc1)N[C@@H](CCc1ccccc1)C(=O)O)NS2(=O)=O (some centres undefined)	<1	IC50 [11]: 0.24 µM; Activity (Rattus norvegicus [12]): No increase
100	80	50	50	38	C[C@H](N[C@@H](CCc1ccccc1)C(=O)O)C(=O)N(CC(=O)O)CC1Nc2cc(Cl)c(S(N)(=O)=O)cc2S(=O)(=O)N1 (some centres undefined)	>3	inhibition [13]: 100%; Activity (Canis familiaris [28]): No increase; Decrease (Canis familiaris [8]): 21%; Activity (Rattus norvegicus [9]): Natriuresis and diuresis
100	80	50	80	28	CCOC(=O)c1cc(S(N)(=O)=O)c(Cl)cc1NCCCC[C@H](C(=O)O)N(Cc1ccccc1)C(=O)[C@H](C)N[C@@H](CCc1ccccc1)C(=O)OCC.Cl	<1	Activity (Rattus norvegicus [23]): No increase
–	80	–	–	3.5	C[C@H](N[C@@H](CCc1ccccc1)C(=O)O)C(=O)N(CC(=O)O)C1CCC2(CC1)Nc1cc(Cl)c(S(N)(=O)=O)cc1S(=O)(=O)N2 (some centres undefined)	3	–
